Experiment [1] has as its target Fibroblast growth factor receptor 3 (Homo sapiens) (UniProt P22607). Briefly: Inhibition of FGFR3(h) at 10.0 µM in the Eurofins Kinase panel. The note with it: Compound concentration 10.0 uM.
Experiment [2] deals with Fibroblast growth factor receptor 4 (Homo sapiens) (UniProt P22455). Briefly: Inhibition of FGFR4(h) at 10.0 µM in the Eurofins Kinase panel. The note with it: Compound concentration 10.0 uM.
The target in experiment [3] is Tyrosine-protein kinase Lck (Homo sapiens) (UniProt P06239). Briefly: Inhibition of Lck(h) at 10.0 µM in the Eurofins Kinase panel. The settings on record: Compound concentration 10.0 uM.
The target in experiment [4] is MAP kinase-interacting serine/threonine-protein kinase 1 (Homo sapiens) (UniProt Q9BUB5). In words: Inhibition of Mnk1(h) at 10.0 µM in the Eurofins Kinase panel. The settings on record: Compound concentration 10.0 uM.
For experiment [5], the target named is STE20/SPS1-related proline-alanine-rich protein kinase (Homo sapiens) (UniProt Q9UEW8). In words: Inhibition of STK39(h) at 10.0 µM in the Eurofins Kinase panel. The settings on record: Compound concentration 10.0 uM.
The target in experiment [6] is Wee1-like protein kinase (Homo sapiens) (UniProt P30291). In words: Inhibition of WEE1(h) at 10.0 µM in the Eurofins Kinase panel. The settings on record: Compound concentration 10.0 uM.
In experiment [7] the target is Histamine H2 receptor (Homo sapiens) (UniProt P25021). The note with it: Compound concentration 10.0 uM.
The species entered for experiment [8] is Homo sapiens. The note with it: Compound concentration 10.0 uM.
For experiment [9], the target named is Motilin receptor (Homo sapiens) (UniProt O43193). The settings on record: Compound concentration 10.0 uM.
The target in experiment [10] is Epidermal growth factor receptor (Homo sapiens) (UniProt P00533). Briefly: Inhibition of Epidermal Growth Factor (EGF) at 10 µM in the Eurofins-Panlabs radioligand binding assay (Eurofins_assay_225510). The settings on record: Compound concentration 10.0 uM.
The target of experiment [11] is GABA-A receptor; anion channel (Rattus norvegicus) (UniProt O09028+P15431+P18506+P18508+P19969+P20236+P23574+P23576+P28471+P28473+P30191+P62813+P63079+P63138+Q91ZM7+Q9ES14). In words: Inhibition of GABAA, Muscimol, Central at 10 µM in the Eurofins-Panlabs radioligand binding assay (Eurofins_assay_226500). The experiment is classed as protein-complex assay. The note with it: Compound concentration 10.0 uM.

Experiment [12] addresses Gamma-aminobutyric acid type B receptor subunit 1 (Homo sapiens) (UniProt Q9UBS5). Briefly: Inhibition of GABAB1A at compound concentration of 10.0 uM in the Eurofins-Panlabs radioligand binding assay (Eurofins_assay_228610). Set-up: ligand concentration 4 nM. The note with it: Compound concentration 10.0 uM.
The species entered for experiment [13] is Rattus norvegicus. Briefly: Inhibition of Thyroid Hormone at 10 µM in the Eurofins-Panlabs radioligand binding assay (Eurofins_assay_285900). The settings on record: Compound concentration 10.0 uM. The experiment is classed as protein assay.
Experiment [14] addresses 3-hydroxy-3-methylglutaryl-coenzyme A reductase (Homo sapiens) (UniProt P04035). In words: Inhibition of HMG-CoA Reductase at compound concentration of 10.0 uM in the Eurofins-Panlabs enzyme assay (Eurofins_assay_124010). Set-up: substrate with concentration. The settings on record: Compound concentration 10.0 uM.
Experiment [15] concerns the target Polyunsaturated fatty acid lipoxygenase ALOX15 (Homo sapiens) (UniProt P16050). In words: Inhibition of Lipoxygenase 15-LO at 10 µM in the Eurofins-Panlabs enzyme assay (Eurofins_assay_138000). The settings on record: Oryctolagus cuniculus; Compound concentration 10.0 uM.
The target of experiment [16] is Tyrosine-protein kinase Fyn (Homo sapiens) (UniProt P06241). Briefly: Inhibition of Protein Tyrosine Kinase, Fyn at 10 µM in the Eurofins-Panlabs enzyme assay (Eurofins_assay_172020). The settings on record: Compound concentration 10.0 uM. Set-up: substrate with concentration.
Experiment [17] has as its target Tyrosine-protein kinase Lck (Homo sapiens) (UniProt P06239). In words: Inhibition of Protein Tyrosine Kinase, LCK at 10 µM in the Eurofins-Panlabs enzyme assay (Eurofins_assay_176020). The note with it: Compound concentration 10.0 uM.
The target in experiment [18] is Melanocortin receptor 5 (Homo sapiens) (UniProt P33032). Briefly: Inhibition of Melanocortin MC5 at 10 µM in the Eurofins-Panlabs radioligand binding assay (Eurofins_assay_251400). Set-up: ligand concentration 0.035 nM. The note with it: Compound concentration 10.0 uM.
Experiment [19] has as its target 5-hydroxytryptamine receptor 1B (Homo sapiens) (UniProt P28222). Briefly: Inhibition of Serotonin (5-Hydroxytryptamine) 5-HT1B at 10 µM in the Eurofins-Panlabs radioligand binding assay (Eurofins_assay_271200). The note with it: Compound concentration 10.0 uM.
The target in experiment [20] is 5-hydroxytryptamine receptor 6 (Homo sapiens) (UniProt P50406). Briefly: Inhibition of Serotonin (5-Hydroxytryptamine) 5-HT6 at 10 µM in the Eurofins-Panlabs radioligand binding assay (Eurofins_assay_272200). The settings on record: Compound concentration 10.0 uM.
Experiment [21] concerns the target Vascular endothelial growth factor receptor 1 (Homo sapiens) (UniProt P17948). Briefly: Inhibition of Flt1(h) at 10.0 µM in the Eurofins Kinase panel. The note with it: Compound concentration 10.0 uM.
Experiment [22] deals with Serine/threonine-protein kinase Nek4 (Homo sapiens) (UniProt P51957). Briefly: Inhibition of NEK4(h) at 10.0 µM in the Eurofins Kinase panel. The note with it: Compound concentration 10.0 uM.
For experiment [23], the target named is T1, Alpha-1A adrenergic receptor (Homo sapiens) (UniProt P35348).
T1 sequence (whole entry): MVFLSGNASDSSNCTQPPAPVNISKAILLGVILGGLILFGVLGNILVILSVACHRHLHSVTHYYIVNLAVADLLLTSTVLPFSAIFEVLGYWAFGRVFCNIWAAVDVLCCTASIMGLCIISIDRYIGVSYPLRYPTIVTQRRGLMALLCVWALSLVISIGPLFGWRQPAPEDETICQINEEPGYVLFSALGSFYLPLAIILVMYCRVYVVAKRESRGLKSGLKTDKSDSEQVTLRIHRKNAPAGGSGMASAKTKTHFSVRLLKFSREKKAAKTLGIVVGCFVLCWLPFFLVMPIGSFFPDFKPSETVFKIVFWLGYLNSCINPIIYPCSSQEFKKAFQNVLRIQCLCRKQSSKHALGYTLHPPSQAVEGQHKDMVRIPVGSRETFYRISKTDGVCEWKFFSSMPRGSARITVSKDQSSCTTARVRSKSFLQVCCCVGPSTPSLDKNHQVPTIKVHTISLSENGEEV
The note with it: Compound concentration 10.0 uM.

Experiment [24] concerns the target T2, Muscarinic acetylcholine receptor M1 (Homo sapiens) (UniProt P11229).
T2 sequence (whole entry): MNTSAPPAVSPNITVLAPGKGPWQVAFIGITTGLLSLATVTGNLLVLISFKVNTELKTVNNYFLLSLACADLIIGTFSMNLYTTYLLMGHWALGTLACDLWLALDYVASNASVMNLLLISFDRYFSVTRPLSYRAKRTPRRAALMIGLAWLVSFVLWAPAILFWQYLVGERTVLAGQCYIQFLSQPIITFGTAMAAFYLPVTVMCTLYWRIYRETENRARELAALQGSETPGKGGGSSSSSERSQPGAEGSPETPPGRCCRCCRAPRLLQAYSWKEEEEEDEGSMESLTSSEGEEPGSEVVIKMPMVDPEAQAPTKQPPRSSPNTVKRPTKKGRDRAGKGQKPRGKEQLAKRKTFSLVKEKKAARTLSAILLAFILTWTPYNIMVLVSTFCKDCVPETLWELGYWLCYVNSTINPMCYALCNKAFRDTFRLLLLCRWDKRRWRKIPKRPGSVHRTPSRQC
The note with it: Compound concentration 10.0 uM.

The target in experiment [25] is T1, Alpha-1A adrenergic receptor (Homo sapiens). The settings on record: Rattus norvegicus; Compound concentration 10.0 uM.
In experiment [26] the target is Histamine H3 receptor (Homo sapiens) (UniProt Q9Y5N1). The note with it: Compound concentration 10.0 uM.

Structures are written as SMILES.

Tyrosine-protein kinase Lck (Homo sapiens), sequence (P06239 2-509 limits assumed): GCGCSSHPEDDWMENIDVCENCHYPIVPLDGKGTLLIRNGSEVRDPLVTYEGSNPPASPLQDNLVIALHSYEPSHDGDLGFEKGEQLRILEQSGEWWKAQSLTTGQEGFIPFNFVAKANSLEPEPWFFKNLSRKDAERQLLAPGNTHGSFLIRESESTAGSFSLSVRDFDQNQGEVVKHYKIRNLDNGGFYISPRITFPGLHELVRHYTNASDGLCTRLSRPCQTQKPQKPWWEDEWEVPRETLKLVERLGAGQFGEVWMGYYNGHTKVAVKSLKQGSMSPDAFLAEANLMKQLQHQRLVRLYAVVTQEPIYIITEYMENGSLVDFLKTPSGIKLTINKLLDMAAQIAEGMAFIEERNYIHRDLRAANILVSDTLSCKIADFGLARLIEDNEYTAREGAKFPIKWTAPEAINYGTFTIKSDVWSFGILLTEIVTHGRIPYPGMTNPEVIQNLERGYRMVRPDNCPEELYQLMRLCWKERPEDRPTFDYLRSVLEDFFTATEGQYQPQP
Histamine H2 receptor (Homo sapiens), sequence (P25021 whole entry): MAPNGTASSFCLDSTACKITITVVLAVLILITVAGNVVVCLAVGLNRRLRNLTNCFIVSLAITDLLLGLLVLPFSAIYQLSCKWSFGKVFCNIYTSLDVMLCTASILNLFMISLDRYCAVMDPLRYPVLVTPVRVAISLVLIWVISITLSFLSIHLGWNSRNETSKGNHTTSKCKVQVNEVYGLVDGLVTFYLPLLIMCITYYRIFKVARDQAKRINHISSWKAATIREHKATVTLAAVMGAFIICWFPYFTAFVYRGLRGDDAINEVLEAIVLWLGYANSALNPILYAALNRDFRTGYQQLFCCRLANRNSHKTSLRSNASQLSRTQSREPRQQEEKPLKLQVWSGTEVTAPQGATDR
Histamine H3 receptor (Homo sapiens), sequence (Q9Y5N1 whole entry): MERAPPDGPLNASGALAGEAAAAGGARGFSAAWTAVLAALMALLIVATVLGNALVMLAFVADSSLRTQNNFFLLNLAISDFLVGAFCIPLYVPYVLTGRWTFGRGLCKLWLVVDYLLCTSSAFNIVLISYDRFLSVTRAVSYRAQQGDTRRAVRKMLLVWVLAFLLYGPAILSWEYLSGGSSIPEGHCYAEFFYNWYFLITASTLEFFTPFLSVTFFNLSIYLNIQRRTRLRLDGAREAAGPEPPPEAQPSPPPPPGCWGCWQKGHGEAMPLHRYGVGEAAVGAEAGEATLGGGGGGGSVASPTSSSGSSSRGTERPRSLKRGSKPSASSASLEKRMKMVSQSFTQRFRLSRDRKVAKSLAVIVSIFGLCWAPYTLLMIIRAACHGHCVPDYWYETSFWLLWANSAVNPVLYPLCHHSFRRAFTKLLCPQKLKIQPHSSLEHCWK
Gamma-aminobutyric acid type B receptor subunit 1 (Homo sapiens), sequence (Q9UBS5 whole entry): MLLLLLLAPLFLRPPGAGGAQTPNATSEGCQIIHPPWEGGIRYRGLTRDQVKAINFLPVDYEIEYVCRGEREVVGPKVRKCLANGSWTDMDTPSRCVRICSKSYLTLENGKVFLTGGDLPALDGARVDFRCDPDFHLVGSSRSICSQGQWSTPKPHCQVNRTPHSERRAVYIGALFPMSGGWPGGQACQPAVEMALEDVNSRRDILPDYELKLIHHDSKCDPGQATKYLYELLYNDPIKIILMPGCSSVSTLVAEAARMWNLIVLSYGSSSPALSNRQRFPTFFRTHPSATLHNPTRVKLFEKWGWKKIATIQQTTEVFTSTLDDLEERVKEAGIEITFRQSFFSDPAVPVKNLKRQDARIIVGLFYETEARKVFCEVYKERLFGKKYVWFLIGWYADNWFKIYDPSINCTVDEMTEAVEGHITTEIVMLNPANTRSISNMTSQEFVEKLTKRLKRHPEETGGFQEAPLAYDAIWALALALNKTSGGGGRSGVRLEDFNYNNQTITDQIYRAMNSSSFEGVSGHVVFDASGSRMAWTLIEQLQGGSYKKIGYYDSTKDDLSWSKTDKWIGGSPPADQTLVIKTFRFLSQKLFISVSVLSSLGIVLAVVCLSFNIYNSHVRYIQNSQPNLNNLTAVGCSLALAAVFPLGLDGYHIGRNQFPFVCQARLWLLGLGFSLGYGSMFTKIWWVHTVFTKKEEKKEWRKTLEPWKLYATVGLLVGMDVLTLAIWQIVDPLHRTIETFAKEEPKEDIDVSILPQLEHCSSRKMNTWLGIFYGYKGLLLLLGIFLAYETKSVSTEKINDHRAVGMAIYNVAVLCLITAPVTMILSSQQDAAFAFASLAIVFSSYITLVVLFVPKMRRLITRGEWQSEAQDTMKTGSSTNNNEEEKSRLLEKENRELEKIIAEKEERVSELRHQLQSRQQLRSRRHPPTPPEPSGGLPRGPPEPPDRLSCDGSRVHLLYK
Epidermal growth factor receptor (Homo sapiens), sequence (P00533 whole entry): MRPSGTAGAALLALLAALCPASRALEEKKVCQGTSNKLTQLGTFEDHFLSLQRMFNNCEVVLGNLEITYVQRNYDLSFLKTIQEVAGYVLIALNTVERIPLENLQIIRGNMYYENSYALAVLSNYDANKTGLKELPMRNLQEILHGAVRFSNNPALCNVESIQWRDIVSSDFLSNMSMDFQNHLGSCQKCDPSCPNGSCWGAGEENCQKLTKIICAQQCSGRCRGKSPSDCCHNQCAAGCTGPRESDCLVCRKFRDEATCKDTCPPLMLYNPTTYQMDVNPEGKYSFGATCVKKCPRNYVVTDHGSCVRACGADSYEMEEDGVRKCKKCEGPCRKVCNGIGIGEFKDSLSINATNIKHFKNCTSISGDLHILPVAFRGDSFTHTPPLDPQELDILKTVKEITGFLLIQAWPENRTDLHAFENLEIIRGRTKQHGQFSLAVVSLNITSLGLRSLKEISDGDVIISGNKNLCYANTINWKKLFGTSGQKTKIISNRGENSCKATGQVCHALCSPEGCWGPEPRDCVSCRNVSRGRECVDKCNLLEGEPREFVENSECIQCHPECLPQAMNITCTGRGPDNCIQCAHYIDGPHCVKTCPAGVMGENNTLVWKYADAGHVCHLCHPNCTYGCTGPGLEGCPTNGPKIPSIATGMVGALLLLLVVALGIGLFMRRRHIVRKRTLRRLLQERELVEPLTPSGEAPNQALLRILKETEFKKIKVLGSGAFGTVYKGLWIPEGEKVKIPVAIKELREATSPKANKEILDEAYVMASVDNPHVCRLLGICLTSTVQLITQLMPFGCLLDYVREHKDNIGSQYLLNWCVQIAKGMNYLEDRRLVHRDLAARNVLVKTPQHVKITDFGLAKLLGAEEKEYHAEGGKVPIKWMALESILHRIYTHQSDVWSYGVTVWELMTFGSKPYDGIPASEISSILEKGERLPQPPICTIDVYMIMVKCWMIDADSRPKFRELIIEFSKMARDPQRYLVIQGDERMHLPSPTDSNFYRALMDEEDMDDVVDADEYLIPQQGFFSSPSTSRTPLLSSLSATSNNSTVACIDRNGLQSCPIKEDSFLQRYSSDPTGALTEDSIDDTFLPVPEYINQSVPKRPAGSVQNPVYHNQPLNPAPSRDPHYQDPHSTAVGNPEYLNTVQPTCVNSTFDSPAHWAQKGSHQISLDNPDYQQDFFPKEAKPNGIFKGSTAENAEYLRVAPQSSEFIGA
Motilin receptor (Homo sapiens), sequence (O43193 whole entry): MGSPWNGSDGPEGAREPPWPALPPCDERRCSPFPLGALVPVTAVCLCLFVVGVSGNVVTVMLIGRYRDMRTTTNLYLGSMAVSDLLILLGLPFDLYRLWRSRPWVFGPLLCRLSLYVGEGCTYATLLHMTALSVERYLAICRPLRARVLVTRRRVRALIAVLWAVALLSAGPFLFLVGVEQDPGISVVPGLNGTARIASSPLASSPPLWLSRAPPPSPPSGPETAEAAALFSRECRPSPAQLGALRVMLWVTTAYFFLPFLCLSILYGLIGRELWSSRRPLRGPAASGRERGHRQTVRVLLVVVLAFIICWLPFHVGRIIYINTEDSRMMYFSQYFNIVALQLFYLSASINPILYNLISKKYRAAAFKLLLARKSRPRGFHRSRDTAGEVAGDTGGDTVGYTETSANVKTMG
MAP kinase-interacting serine/threonine-protein kinase 1 (Homo sapiens), sequence (Q9BUB5 whole entry, looked up): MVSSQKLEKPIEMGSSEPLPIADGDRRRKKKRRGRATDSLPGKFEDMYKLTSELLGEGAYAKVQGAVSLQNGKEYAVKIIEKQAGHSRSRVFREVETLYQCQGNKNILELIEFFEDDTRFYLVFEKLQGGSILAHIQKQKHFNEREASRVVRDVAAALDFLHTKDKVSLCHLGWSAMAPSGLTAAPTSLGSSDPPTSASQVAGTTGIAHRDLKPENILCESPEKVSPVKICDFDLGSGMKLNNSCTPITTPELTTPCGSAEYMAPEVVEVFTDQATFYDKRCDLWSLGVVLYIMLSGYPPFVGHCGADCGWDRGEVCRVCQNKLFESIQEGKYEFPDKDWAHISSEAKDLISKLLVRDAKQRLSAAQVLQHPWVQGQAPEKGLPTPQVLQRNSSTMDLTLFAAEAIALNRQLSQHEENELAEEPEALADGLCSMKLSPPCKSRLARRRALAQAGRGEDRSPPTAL
Polyunsaturated fatty acid lipoxygenase ALOX15 (Homo sapiens), sequence (P16050 whole entry): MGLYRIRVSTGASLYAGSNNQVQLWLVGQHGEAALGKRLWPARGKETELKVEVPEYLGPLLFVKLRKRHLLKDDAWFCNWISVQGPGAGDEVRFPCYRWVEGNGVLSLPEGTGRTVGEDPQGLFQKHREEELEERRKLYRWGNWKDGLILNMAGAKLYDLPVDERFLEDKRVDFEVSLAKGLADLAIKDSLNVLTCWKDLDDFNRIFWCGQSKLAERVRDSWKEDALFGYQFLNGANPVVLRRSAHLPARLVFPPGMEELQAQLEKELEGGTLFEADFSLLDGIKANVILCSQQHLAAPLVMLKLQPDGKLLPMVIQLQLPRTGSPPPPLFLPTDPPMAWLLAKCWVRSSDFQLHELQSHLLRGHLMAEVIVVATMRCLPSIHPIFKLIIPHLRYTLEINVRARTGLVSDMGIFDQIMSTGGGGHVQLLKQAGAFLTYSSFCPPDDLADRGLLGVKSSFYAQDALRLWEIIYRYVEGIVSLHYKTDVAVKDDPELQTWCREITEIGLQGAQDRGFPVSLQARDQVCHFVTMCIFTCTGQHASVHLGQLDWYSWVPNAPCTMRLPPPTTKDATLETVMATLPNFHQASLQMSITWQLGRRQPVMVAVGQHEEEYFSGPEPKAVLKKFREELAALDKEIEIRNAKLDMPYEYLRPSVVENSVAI

On to `O=c1n(Cc2cncn2-c2cccc(Cl)c2)nc(-c2ccc(Cl)cc2)n1C[C@H](O)C(F)(F)F`, for which the inhibition (as a rule, the change of the read-out against control, counted positive when it falls) in [1] is -0.44%; in experiment [2], -8.35%; in experiment [3] it was -7.91%; in [4], -9.85%; in [5], -4.72%; in experiment [6], -5.39%. For the same compound, the values for the inhibition in experiment [7], in [8] and in [9] were 20%, -5% and 12%, respectively.

Turning to `C[C@H](O)c1nc(Cn2nc(-c3ccc(Cl)cc3)n(C[C@H](O)C(F)(F)F)c2=O)nn1-c1cccc(Cl)c1` [PECAVAPTAN], the inhibition in experiment [10] is 14%; in [11], -2%; in [12] it was -4%; in experiment [13] it was 6%; in experiment [14], 9%; in experiment [15] it was 4%. The inhibition in experiment [16] was -6%; in experiment [17], -9%; in experiment [18], 13%; in [19] it was -5%; in experiment [20], 4%; in experiment [21] it was -9.22%. Besides, the inhibition is 13.1% in experiment [22]; -2.04% in [23]; 4.34% in [24]; 23% in experiment [25]; -1% in [26].

Source of the values: ChEMBL document CHEMBL5463729, “Data for DCP probe BAY 1753011” (2023).
